From paper PMC5617977, “Antibacterial Activity and Toxicity of Analogs of Scorpion Venom IsCT Peptides” (Antibiotics, 2017)
Entries after “also recorded” stand apart in the source; their conditions may differ. Where no end group is shown, it is not given here.

How the values were obtained:
[1] = test system: Salmonella typhimurium (ATCC# 14028); assay: Antibacterial activity, standard broth (liquid) dilution; type: cell-based; settings: Luria Bertani broth, peptide 1, 10, 50, 100 μg/mL, 37 °C, 24 h, absorbance 600 nm; MIC interpolated at 0% bacterial growth; average of three independent experiments
Method: (§1) Antimicrobial activities were determined by standard broth dilution against two Gram-positive and three Gram-negative bacteria. In general, the MICs seem to be higher than the concentrations tested in our experiments (Table 3). Only Staphylococcus aureus and Escherichia coli seem to be inhibited with both natural peptides but also by the leucine substituted analogue, IsCT1L1, at concentrations lower than 25 μg/mL. […] Curiously, some peptides—such as IsCT1V1, IsCT1E7, or even natural IsCT1—when tested with Bacillus cereus show significant bacteria growth inhibition at concentrations lower than 10 μg/mL.
(§2) Two Gram-positive bacteria: Staphylococcus aureus (ATCC# 29213) and Bacillus cereus (ATCC# 11778); and three Gram-negative bacteria: Salmonella typhimurium (ATCC# 14028), Enterobacter aerogenes (ATCC# 13048), and Escherichia coli (ATCC# 25922) were tested.
(§3) Activity was determined by the standard liquid dilution method described previously. All results are the average of three independent experiments. Briefly, cells were grown overnight at 37 °C in Luria Bertani broth and diluted in the same medium for assays. Bacteria were added to serial dilutions of the peptides (final concentrations of 1, 10, 50, and 100 μg/mL) and incubated at 37 °C for 24 h. Cell growth was measured by UV absorbance at 600 nm. For each bacterium, a solution containing no peptide (concentration 0 μg/mL) was processed under identical conditions and used as control for 100% bacterial growth. MICs were obtained from interpolation of 0% bacterial growth from plots. Results are the average of three independent experiments.

[2] = test system: Enterobacter aerogenes (ATCC# 13048); assay: as above; type: cell-based; settings: Luria Bertani broth, peptide 1, 10, 50, 100 μg/mL, 37 °C, 24 h, absorbance 600 nm; MIC interpolated at 0% bacterial growth; average of three independent experiments
Method: as §1, §2, §3

[3] = test system: Bacillus cereus (ATCC# 11778); assay: as above; type: cell-based; settings: for MIC B. cereus: Luria Bertani broth, peptide 1, 10, 50, 100 μg/mL, 37 °C, 24 h, absorbance 600 nm, MIC interpolated at 0% bacterial growth, average of three independent experiments
Method: as §1, §2, §3

[4] = test system: Escherichia coli (ATCC# 25922); assay: as above; type: cell-based; settings: Luria Bertani broth, peptide 1, 10, 50, 100 μg/mL, 37 °C, 24 h, absorbance 600 nm; MIC interpolated at 0% bacterial growth; average of three independent experiments
Method: as §1, §2, §3

[5] = test system: Staphylococcus aureus (ATCC# 29213); assay: as above; type: cell-based; settings: Luria Bertani broth, peptide 1, 10, 50, 100 μg/mL, 37 °C, 24 h, absorbance 600 nm; MIC interpolated at 0% bacterial growth; average of three independent experiments
Method: as §1, §2, §3

human erythrocytes = assay: Hemolytic activity; type: cell-based; settings: 1% human erythrocytes in 1× PBS, peptide 1, 10, 50, 100 μg/mL, 37 °C, 1 h, hemoglobin at 416 nm, 100% control 1% TritonX-100; average of two independent experiments
Method: Hemolytic activity was carried out as described previously. Briefly, serial concentrations of peptides (final concentrations of 0 as blank, 1, 10, 50, and 100 μg/mL) were added to 1% human erythrocytes in 1× PBS buffer. The cell suspensions were incubated at 37 °C for 1 h and then centrifuged to remove unlysed erythrocytes. Released hemoglobin was determined spectrophotometrically at 416 nm. The control for 100% release of hemoglobin was a sample of 1% erythrocyte incubated in PBS with 1% TritonX-100. Results are the average of two independent experiments.

[6] = test system: Pseudomonas aeruginosa and Proteus mirabilis; settings: printed as 100 or more than 200; ref Dai [21]; cited from earlier work
Method: (§4) Studies of bacterial inhibition carried out by Dai with IsCT1 and IsCT2 natural peptides show a range of MICs of 1 to 5 μg/mL for different strains of S. aureus and 10 to 25 μg/mL for two strains of Bacillus. For Gram-negative bacteria, they show 5 to 120 μg/mL for two strains of E. coli but 100 or more than 200 μg/mL for other strains of Gram-negative bacteria (Pseudomonas aeruginosa and Proteus mirabilis). Bacterial inhibition studies by Kim with IsCT show MICs of 6 μg/mL for E. coli and 3 μg/mL for S. aureus and, for the IsCT1K7 analog, the reported concentrations are 3 and 1.5 μg/mL ...

E. coli = settings: ref Kim [16]; cited from earlier work
Method: as §4

S. aureus = settings: ref Kim [16]; cited from earlier work
Method: as §4

Row | Substance | MIC S. typhimurium [1] [µg/mL] | MIC E. aerogenes [2] [µg/mL] | MIC B. cereus [3] [µg/mL] | MIC E. coli [4] [µg/mL] | MIC S. aureus [5] [µg/mL] | Hemolytic activity (in words) (human erythrocytes) | concentration showing significant bacteria growth inhibition, Bacillus cereus ([3]; inhibition at low concentration, then plateau or slight increase of growth at higher concentrations (Figure S2)) | MIC, other Gram-negative strains (Pseudomonas aeruginosa and Proteus mirabilis) [6] [µg/mL] | MIC E. coli (E. coli) [µg/mL] | MIC S. aureus (S. aureus) [µg/mL]
1 | ILGKIWKGIKSLF-NH2 [IsCT1K7] | 100 | >100 | >100 | >100 | 100 | highest hemolytic activity | – | – | – | –
2 | ILGKLWEGLKSLF-NH2 [IsCT1L1] | 100 | >100 | >100 | 50 | 50 | highest hemolytic activity; also recorded: toxicity similar to the wild type peptides | – | – | – | –
3 | ILGKIWEGIESLF-NH2 [IsCT1E7] | >100 | >100 | >100 | >100 | >100 | no toxicity at all; also recorded: do not have any apparent citotoxicity; also recorded: no apparent cytotoxicity | – | – | – | –
4 | ILGAVWNGVKSLF-NH2 [IsCT2V1, valine substituted (positions 5 and 9) analog of IsCT2] | >100 | >100 | >100 | >100 | >100 | – | – | – | – | –
5 | ILGKIWEGIKSLF-NH2 [IsCT1, reference compound] | 100 | >100 | >100 | 50 | 50 | highest hemolytic activity | lower than 10 μg/mL | ≥ 100 | 6 | 3
6 | IFGAIWNGIKSLF-NH2 [IsCT2, reference compound] | 100 | >100 | 100 | 50 | 50 | highest hemolytic activity | – | ≥ 100 | – | –
7 | ILGKAWEGAKSLF-NH2 [IsCT1A1] | >100 | >100 | >100 | >100 | >100 | – | – | – | – | –
8 | ILGKVWEGVKSLF-NH2 [IsCT1V1] | >100 | >100 | >100 | >100 | >100 | – | – | – | – | –
9 | ILGAAWNGAKSLF-NH2 [IsCT2A1, alanine substituted (positions 5 and 9) analog of IsCT2] | >100 | >100 | >100 | >100 | >100 | – | – | – | – | –
